Source: article PMC6606608, “Chemical logic of MraY inhibition by antibacterial nucleoside natural products” (Nature Communications, 2019)
Where two headings read alike, the source gives them in different places.

Tests used:
[1] = target: T1, MraYAA (phospho-MurNAc-pentapeptide translocase, MraY) (Aquifex aeolicus, UniProt O66465); assay: X-ray crystal structure ([…] Å); UMP-Glo enzyme inhibition IC50; format: biochemical
T1 construct: Codon-optimized His-MBP-PreScission fusion, E. coli C41(DE3), DDM-extracted, tag cleaved; IC50 on MraYAA alone (NB7 only in crystals)
T1 sequence (O66465 1-359): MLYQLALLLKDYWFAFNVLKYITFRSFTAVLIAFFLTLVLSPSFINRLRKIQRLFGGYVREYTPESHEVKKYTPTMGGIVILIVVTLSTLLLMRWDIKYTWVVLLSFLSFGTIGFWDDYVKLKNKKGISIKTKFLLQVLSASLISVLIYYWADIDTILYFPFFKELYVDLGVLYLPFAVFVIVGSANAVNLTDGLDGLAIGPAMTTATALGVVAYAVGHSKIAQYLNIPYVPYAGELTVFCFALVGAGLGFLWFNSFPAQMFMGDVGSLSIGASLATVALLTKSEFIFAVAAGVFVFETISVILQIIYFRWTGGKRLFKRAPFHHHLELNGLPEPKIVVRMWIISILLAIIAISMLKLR

[2] = target: T1, MraYAA (phospho-MurNAc-pentapeptide translocase, MraY); assay: as above; format: biochemical; remark: listed apart in the source

| IC50 [1] | IC50 [2] | SMILES |
| --- | --- | --- |
| 0.185 µM |  | CO[C@H]1[C@@H](O)[C@H](n2ccc(=O)[nH]c2=O)O[C@@H]1[C@@H](O[C@H]1OC(C(=O)N[C@H]2CCCCNC2=O)=C[C@H](O)[C@@H]1O)C(N)=O [capuramycin] |
|  | 0.052 µM | CSCC[C@H](NC(=O)N[C@@H](Cc1cccc(O)c1)C(=O)O)C(=O)N[C@H](C(=O)N/C=C1/O[C@@H](n2ccc(=O)[nH]c2=O)[C@H](O)[C@@H]1O)[C@H](C)N(C)C(=O)[C@@H](N)Cc1cccc(O)c1 [3′-hydroxymureidomycin A] |
